For one test, the target named is T1, ACK (Homo sapiens, UniProt Q07912).
T1 construct: purchased Carna Biosciences (QuickScout service)
Put plainly: QuickScout ELISA kinase panel. The settings on record: Compound 5 at 10 nM. In kind it is biochemical. An excerpt:
(§1) . […] An ELISA-based assay was used in which the phosphorylation of an oligopeptide substrate was detected by an HRP-conjugated anti-p-Tyr (PY20) probe. […]. The data appears in Table 2 in Example 3.
Background: An ELISA detects its analyte on a solid surface through an enzyme-linked reagent.

Another test has as its target T2, CSK (Homo sapiens, UniProt P41240).
T2 construct: purchased Carna Biosciences (QuickScout service)
The test is described as follows: QuickScout ELISA kinase panel. The test is classed as biochemical. The settings on record: Compound 5 at 10 nM.
Excerpt: as §1

Another test deals with T3, EphA2 (Homo sapiens, UniProt P29317).
T3 construct: purchased Carna Biosciences (QuickScout service)
The test is described as follows: QuickScout ELISA kinase panel. In kind it is biochemical. The settings on record: Compound 5 at 10 nM.
Excerpt: as §1

In the next test the target is T4, EphB4 (Homo sapiens, UniProt P54760).
T4 construct: purchased Carna Biosciences (QuickScout service)
Put plainly: QuickScout ELISA kinase panel. The test is classed as biochemical. The settings on record: Compound 5 at 10 nM.
Excerpt: as §1

The next test addresses T5, FLT3 (Homo sapiens, UniProt P36888).
T5 construct: purchased Carna Biosciences (Kobe, Japan), QuickScout service
The test is described as follows: QuickScout ELISA kinase panel. The test is classed as biochemical. The settings on record: Compound 5 at 10 nM.
Excerpt: as §1

The target of a further test is T6, JAK3 (Homo sapiens, UniProt P52333).
T6 construct: purchased Carna Biosciences (QuickScout service)
Put plainly: QuickScout ELISA kinase panel. In kind it is biochemical. To be noted: Compound 5 at 10 nM.
Excerpt: as §1

A further test concerns the target T7, MET (Homo sapiens, UniProt P08581).
T7 construct: purchased Carna Biosciences (QuickScout service)
The test is described as follows: QuickScout ELISA kinase panel. In kind it is biochemical. The settings on record: Compound 5 at 10 nM.
Excerpt: as §1

The next test addresses T8, PDGFR— (Homo sapiens, UniProt P16234).
T8 construct: purchased Carna Biosciences (Kobe, Japan), QuickScout service
Put plainly: QuickScout ELISA kinase panel. In kind it is biochemical. The settings on record: Compound 5 at 10 nM.
Excerpt: as §1

For a further test, the target named is T9, TEC (Homo sapiens, UniProt P42680).
T9 construct: purchased Carna Biosciences (Kobe, Japan), QuickScout service
T9 sequence (P42680 1-631): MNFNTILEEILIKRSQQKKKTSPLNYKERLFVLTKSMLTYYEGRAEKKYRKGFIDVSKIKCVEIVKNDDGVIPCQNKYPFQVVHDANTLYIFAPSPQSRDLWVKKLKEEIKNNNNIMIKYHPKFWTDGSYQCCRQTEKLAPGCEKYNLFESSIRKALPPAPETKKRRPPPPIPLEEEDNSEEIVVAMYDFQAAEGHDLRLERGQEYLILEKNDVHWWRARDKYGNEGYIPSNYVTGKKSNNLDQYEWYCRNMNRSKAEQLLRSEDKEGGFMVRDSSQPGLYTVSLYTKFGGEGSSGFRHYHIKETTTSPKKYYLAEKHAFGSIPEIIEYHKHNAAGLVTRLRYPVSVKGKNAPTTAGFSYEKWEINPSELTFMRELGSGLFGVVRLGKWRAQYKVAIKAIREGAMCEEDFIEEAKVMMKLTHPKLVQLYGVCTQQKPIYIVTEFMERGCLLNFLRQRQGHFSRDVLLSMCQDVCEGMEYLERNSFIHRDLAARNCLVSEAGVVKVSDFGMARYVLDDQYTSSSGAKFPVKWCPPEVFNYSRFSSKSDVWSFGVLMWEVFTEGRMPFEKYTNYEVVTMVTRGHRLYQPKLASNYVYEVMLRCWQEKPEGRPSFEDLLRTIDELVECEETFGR
Put plainly: QuickScout ELISA kinase panel. The test is classed as biochemical. The settings on record: Compound 5 at 10 nM.
Excerpt: as §1

A further test concerns the target T10, TYRO3 (Homo sapiens, UniProt Q06418).
T10 construct: purchased Carna Biosciences (QuickScout service)
The test is described as follows: QuickScout ELISA kinase panel. The test is classed as biochemical. The settings on record: Compound 5 at 10 nM.
Excerpt: as §1

Another test deals with SRC (Homo sapiens, UniProt P12931). The test is described as follows: biochemical. An excerpt:
An ELISA-based assay was used in which the phosphorylation of an oligopeptide substrate was detected by an HRP-conjugated anti-p-Tyr (PY20) probe.

By inhibition is commonly meant the percentage by which the read-out fell short of the control. The term IC50 denotes the concentration that inhibits the measured activity by half.

A value given as a limit tells only on which side of the number the result lay.

Sequence of SRC (P12931 whole entry): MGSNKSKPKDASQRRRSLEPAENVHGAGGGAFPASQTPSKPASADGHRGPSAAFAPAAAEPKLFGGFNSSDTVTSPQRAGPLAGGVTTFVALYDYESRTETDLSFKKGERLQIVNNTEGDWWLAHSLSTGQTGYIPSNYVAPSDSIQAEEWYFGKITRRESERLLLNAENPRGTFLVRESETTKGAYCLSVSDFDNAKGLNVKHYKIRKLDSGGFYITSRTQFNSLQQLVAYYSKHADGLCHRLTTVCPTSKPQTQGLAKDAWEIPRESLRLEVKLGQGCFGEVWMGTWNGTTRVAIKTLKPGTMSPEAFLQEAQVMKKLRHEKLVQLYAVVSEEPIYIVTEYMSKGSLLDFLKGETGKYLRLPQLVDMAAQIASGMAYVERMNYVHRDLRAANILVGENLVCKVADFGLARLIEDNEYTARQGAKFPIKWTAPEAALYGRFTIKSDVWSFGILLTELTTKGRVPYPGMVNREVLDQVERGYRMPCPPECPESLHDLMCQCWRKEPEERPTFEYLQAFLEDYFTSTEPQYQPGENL
T8 sequence (P16234 550-1089 limits assumed): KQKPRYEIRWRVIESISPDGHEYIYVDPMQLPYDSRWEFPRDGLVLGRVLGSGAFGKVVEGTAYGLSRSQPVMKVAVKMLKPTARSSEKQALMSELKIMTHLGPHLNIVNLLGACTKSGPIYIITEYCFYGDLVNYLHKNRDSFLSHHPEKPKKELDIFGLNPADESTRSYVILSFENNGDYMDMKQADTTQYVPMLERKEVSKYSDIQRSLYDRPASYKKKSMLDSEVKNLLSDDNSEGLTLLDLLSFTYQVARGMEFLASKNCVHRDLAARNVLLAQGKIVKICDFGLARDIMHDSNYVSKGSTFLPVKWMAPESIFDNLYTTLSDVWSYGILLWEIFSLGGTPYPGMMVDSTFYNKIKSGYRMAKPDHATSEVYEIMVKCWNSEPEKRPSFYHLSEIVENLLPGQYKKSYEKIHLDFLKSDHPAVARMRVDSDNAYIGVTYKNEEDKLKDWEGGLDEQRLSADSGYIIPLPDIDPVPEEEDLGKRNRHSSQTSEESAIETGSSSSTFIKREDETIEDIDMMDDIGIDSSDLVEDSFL
T7 sequence (P08581 25-1390): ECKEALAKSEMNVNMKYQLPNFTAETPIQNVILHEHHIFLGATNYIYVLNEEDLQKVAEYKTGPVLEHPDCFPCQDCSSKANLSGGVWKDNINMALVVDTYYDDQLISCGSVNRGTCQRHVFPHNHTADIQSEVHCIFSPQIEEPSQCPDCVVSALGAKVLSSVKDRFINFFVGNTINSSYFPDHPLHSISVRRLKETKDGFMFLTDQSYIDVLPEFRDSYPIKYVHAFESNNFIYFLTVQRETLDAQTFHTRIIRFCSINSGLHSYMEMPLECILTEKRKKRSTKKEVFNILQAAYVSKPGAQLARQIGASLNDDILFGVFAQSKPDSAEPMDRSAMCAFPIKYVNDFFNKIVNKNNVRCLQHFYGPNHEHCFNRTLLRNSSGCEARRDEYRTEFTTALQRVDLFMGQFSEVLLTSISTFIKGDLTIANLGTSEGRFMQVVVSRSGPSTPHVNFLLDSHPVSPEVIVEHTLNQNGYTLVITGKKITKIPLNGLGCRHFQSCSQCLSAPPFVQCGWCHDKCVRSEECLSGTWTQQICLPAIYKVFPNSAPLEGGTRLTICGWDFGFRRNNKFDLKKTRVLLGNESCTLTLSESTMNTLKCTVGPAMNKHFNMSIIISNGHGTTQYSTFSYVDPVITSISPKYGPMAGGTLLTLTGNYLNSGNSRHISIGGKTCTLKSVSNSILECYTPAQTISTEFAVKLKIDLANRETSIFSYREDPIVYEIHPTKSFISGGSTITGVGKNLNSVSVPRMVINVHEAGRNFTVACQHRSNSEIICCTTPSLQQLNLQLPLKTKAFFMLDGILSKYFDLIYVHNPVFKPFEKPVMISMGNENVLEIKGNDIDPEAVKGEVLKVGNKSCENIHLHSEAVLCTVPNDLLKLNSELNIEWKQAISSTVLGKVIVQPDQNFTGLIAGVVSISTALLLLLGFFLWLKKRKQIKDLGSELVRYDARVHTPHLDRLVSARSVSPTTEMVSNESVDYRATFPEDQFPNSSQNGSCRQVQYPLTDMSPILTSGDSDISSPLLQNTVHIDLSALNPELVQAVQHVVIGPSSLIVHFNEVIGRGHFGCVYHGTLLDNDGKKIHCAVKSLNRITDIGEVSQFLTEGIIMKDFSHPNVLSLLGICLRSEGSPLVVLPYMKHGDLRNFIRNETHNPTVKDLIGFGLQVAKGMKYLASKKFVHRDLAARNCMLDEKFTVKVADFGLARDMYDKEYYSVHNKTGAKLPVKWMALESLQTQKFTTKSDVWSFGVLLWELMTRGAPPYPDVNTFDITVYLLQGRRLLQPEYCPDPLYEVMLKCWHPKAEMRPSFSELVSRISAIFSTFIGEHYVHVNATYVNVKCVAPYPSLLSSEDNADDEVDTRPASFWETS
T2 sequence (P41240 whole entry): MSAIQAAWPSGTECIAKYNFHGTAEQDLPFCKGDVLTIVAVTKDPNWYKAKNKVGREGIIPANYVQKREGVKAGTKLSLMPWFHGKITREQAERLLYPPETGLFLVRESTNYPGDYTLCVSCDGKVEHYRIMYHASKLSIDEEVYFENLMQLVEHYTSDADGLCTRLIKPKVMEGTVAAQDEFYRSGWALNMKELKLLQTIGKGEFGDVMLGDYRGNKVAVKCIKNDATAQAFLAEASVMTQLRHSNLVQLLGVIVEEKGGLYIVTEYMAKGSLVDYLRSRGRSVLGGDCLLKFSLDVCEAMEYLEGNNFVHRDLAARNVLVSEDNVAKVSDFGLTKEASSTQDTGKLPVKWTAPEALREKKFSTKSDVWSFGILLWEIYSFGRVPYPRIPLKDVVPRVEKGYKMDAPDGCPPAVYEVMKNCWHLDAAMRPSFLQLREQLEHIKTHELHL
T5 sequence (P36888 27-993): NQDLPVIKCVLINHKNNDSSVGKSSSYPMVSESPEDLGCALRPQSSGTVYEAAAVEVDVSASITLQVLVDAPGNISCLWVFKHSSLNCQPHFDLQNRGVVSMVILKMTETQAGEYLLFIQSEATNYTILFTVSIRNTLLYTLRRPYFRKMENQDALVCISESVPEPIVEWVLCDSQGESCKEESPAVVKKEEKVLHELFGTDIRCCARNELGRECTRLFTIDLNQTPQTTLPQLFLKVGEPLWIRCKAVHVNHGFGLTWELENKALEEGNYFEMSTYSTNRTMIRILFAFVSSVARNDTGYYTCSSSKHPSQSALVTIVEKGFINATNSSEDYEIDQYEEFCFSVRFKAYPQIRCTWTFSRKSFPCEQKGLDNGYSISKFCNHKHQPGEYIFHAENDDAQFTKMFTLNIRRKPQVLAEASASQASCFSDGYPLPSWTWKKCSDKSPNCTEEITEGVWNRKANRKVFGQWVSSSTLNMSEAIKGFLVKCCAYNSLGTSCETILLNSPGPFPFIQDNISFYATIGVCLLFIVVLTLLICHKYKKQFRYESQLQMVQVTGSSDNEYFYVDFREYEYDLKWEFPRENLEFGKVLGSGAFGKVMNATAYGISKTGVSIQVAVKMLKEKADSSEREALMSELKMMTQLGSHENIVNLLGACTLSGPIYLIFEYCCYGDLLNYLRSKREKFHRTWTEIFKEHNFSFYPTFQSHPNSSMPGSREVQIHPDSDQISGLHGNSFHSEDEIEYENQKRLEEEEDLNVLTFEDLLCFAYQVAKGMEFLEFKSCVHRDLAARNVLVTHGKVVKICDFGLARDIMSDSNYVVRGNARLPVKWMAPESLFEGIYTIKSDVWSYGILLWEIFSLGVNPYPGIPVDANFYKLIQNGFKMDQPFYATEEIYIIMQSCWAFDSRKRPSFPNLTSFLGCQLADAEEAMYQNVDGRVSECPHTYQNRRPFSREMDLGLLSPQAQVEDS
T10 sequence (Q06418 41-890): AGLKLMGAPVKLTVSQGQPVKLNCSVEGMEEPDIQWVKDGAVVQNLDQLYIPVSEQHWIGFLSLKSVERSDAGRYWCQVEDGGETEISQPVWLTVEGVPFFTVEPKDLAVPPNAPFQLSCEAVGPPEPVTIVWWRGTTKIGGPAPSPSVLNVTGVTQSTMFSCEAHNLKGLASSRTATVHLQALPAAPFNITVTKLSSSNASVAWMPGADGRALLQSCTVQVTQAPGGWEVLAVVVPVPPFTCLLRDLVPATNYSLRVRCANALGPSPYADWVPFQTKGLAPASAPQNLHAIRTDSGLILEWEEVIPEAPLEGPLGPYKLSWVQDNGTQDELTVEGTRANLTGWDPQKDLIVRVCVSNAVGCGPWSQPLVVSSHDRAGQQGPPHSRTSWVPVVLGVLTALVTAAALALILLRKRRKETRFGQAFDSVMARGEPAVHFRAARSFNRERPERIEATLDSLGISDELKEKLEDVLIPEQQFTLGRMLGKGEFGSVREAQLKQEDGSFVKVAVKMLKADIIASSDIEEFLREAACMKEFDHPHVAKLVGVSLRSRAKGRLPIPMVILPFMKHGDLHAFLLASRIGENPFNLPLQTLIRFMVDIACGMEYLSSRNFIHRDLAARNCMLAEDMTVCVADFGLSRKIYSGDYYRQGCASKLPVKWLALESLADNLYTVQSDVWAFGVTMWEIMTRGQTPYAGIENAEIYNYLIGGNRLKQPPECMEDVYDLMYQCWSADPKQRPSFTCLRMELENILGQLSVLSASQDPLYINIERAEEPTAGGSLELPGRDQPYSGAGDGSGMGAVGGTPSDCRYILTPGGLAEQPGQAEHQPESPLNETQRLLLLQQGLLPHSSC

`Cc1nc(Nc2ncc(C(=O)Nc3c(C)cccc3Cl)s2)cc(N2CCN(CCF)CC2)n1` [Compound 5, N-(2-Chloro-6-methylphenyl)-2-(6-(4-(2-fluoroethyl)piperazin-1-yl)-2-methylpyrimidin-4-ylamino)thiazole-5-carboxamide]: the inhibition at 0.01 µM on ACK worked out at 83.1%; against CSK, 95.2%; at EphA2, 98.1%; against EphB4, 97%; on FLT3 it was 0.3%; against JAK3 it was 16%. In addition, the inhibition at 0.01 µM against MET is 7.2%; at PDGFR—, 86%; on TEC, 98.1%; at TYRO3 it was 23.1%; at SRC (read-out: % Inhibition of Kinase Activity, SRC, Compound 5 at 10 nM), more than 97%. Moreover, the IC50 against SRC was less than 2 nM. Further, on SRC (Compound 5 at 10 nM, 0.01 µM), the “% Inhibition of Kinase Activity, SRC” value is reported as 97.5%.

(Values after patent US20100226853A1 (priority 2007, published 2010).)
